Data published in patent US20030065039A1, “Biologically active 1,3-bis-aromatic-prop-2-en-1-ones, 1,3-bis-aromatic-propan-1-ones, and 1,3-bis-aromatic-prop-2-yn-1-ones” (Statens Serum Institute, priority 1997, published 2003).

Assays:
Type in all cases: cell-based
Vero cell cultures = assay: Cytotoxicity in Vero cell cultures; settings: Vero cells; values given as fractions, footnote a not given
Excerpt: (§1) In the following is reported the results from a Vero cell culture infected with different viruses. The cell culture used as well as the methods applied are well known to a person skilled in the art.

Coxsackie virus B4 = assay: Antiviral activity in Vero cell cultures; settings: Vero cells; values given as fractions
Description: (§2) IC50 values are determined by the virus plaque formation and/or the virus cytopathic assay using standard methods well-known in the art.
as §1

Parainfluenza-3 Virus = assay: Antiviral activity in Vero cell cultures; settings: Vero cells; values given as fractions
Description: as §2, §1

Reovirus-1 = assay: Antiviral activity in Vero cell cultures; settings: Vero cells; values given as fractions
Description: as §2, §1

Simliki forest virus = assay: Antiviral activity in Vero cell cultures; settings: Vero cells; values given as fractions
Description: as §2, §1

Sindbis virus = assay: Antiviral activity in Vero cell cultures; settings: Vero cells; values given as fractions
Description: as §2, §1

[1] = system: cytomegalovirus AD-169 strain; assay: Activity against cytomegalovirus in HEL cells (plaque formation); settings: virus plaque formation reduced by 50%, 100 PFU, values given as fractions
Description: as §2

[2] = system: cytomegalovirus Davis strain; assay: as above; settings: virus plaque formation reduced by 50%, 100 PFU, values given as fractions
Description: as §2

TNF-α [3] = assay: TNF-α in lysate of stimulated human mononuclear cells (ELISA); settings: cells preincubated with compound, stimulated with SPAG or LPS
Description: Therefore, experiments were performed to examine the effect of Licochalcone A and SBC-35ma on secretion of TNF-α from the stimulated cells. These experiments included detection of the cytokines in the cell lysate by ELISA and staining of the intracellular cytokines by using monoclonal antibodies against these cytokines and cytokine receptors.

TNF-α [4] = assay: Extracellular TNF-α of human mononuclear cells (supernatant); settings: for inhibition at 3.125 µg/mL: compound 3.125 μg/ml; for inhibition at 6.25 µg/mL: compound 6.25 μg/ml; for inhibition at 12.5 µg/mL: compound 12.5 μg/ml
Description: Incubation condition: Cells and mitogen added at the same time and the compound solution added immediately after in polypropylene tubes and incubated at 37° C. in CO2 incubator overnight. The following day the cells and the supernatant were harvested for TNF-α determination. Incubation condition: Cells and mitogen added at the same time and the compound solution added immediately after in polypropylene tubes and incubated at 37° C. in CO2 incubator overnight. The following day the cells and the supernatant were harvested for TNF-α determination.

IFN-γ = IFN-γ producing human mononuclear cells (PMA+inomycin); settings: for % IFN-γ producing cells / inhibition at 12.5 µg/mL: 1b Experiment 2, PMA+inomycin, 12.5 μg/ml; for % IFN-γ producing cells: DMSO Control 16.4; for inhibition of IFN-γ production: concentration of 12.5 μg/ml; for inhibition at 12.5 µg/mL: Homo sapiens
Description: Mitogens: LPS at a final conc. of 1 μg/ml for TNF-α and PMA+inomycin for IFN-γ.
Incubation condition: Cells and mitogen added at the same time and the compound solution added immediately after in polypropylene tubes and incubated at 37° C. in CO2 incubator overnight. The following day the cells and the supernatant were harvested for TNF-α determination.

SMILES	Minimum Cytotoxic Concentration (Vero cell cultures)	Minimum inhibitory concentration, Coxsackie virus B4 (Coxsackie virus B4)	Minimum inhibitory concentration, Parainfluenza-3 Virus (Parainfluenza-3 Virus)	Minimum inhibitory concentration, Reovirus-1 (Reovirus-1)	Minimum inhibitory concentration, Simliki forest virus (Simliki forest virus)	Minimum inhibitory concentration, Sindbis virus (Sindbis virus)	Antiviral activity IC50, AD-169 strain, Assay 1 [1]	Antiviral activity IC50, Davis strain, Assay 1 [2]	intracellular TNF-α in the cell lysate (ELISA) (TNF-α [3])	inhibition at 3.125 µg/mL (TNF-α [4]; 1b Experiment 2, LPS 1 μg/ml)	inhibition at 6.25 µg/mL (TNF-α [4]; 1b Experiment 2, LPS 1 μg/ml)	inhibition at 12.5 µg/mL (TNF-α [4]; 1b Experiment 2, LPS 1 μg/ml)	inhibition at 3.125 µg/mL (TNF-α [4]; 1b Experiment 3, LPS 1 μg/ml)	inhibition at 6.25 µg/mL (TNF-α [4]; 1b Experiment 3, LPS 1 μg/ml)	inhibition at 12.5 µg/mL (TNF-α [4]; 1b Experiment 3, LPS 1 μg/ml)	inhibition at 3.125 µg/mL (TNF-α [4]; 1b Experiment 4, LPS 1 μg/ml)	inhibition at 6.25 µg/mL (TNF-α [4]; 1b Experiment 4, LPS 1 μg/ml)	inhibition at 12.5 µg/mL (TNF-α [4]; 1b Experiment 4, LPS 1 μg/ml)	% IFN-γ producing cells (IFN-γ)	inhibition of IFN-γ production (IFN-γ; 1b Experiment 3)	further results
C=CC(C)(C)c1cc(/C=C/C(=O)c2ccc(O)cc2)c(OC)cc1O [Licochalcone A]	<1/100	<1/100	<1/100	<1/100	<1/100	1/600	1/15000	1/50000	no intracellular TNF-α present												
COc1cc(/C=C/C(=O)c2ccc(C3CCCCC3)cc2)cc(OC)c1 [PH104, 3,5-dimethoxy-4′-cyclohexylchalcone]										82%	90%	93%	54%	70%	76%	0%	78%	86%	17.0%	no inhibition	inhibition of IFN-γ production (IFN-γ; 1b Experiment 4): no inhibition; inhibition at 12.5 µg/mL (IFN-γ): 0%
COc1cc(/C=C/C(=O)c2ccccc2F)cc(OC)c1 [PH135, 2′-fluoro-3,5-dimethoxychalcone]										96%	94%	94%	93%	92%	94%	99%	99%	98%	14.2%	no inhibition	inhibition of IFN-γ production (IFN-γ; 1b Experiment 4): no inhibition; inhibition at 12.5 µg/mL (IFN-γ): 14%
C=CCOc1ccc(C(=O)/C=C/c2cc(OC)cc(OC)c2)cc1 [SBC-35ma, 3,5-dimethoxy-4′-allyloxychalcone]	<1/100	<1/100	<1/100	<1/100	<1/100	<1/100	<1/60	<1/60	no intracellular TNF-α present												
